Laboratory results published in patent US20090047221A1 (NIPRI LIMITED, priority 2004, published 2009).
pIC50: −log10 of the molar value. Where two headings read alike, the source gives them in different places.

Assays:
Type in all cases: cell-based
MCF-7 = test: MTT assay (anti-proliferative activity); details: read-out: IC 50 MCF-7
Method: (§1) The MTT assay was used initially to determine the anti-proliferative activity of the test compounds. In the MTT assay a yellow thiazolyl blue tetrazolium bromide salt (MTT) is reduced, in metabolically active cells, to form insoluble purple formazan crystals which are solubilised by the addition of dimethyl sulphoxide (DMSO).
(§2) Wells containing medium only were used as blanks. Following the attachment period, cells were treated with appropriate drug concentrations (20 μl added per well). 40 mg/ml stock drug solutions, in DMSO, were stored at −20° C. and on the day of drug treatment working solutions of 4 mg/ml were prepared in medium which was further diluted to achieve final drug dilution volumes of 20 μl. Initial screening was determined over a concentration range of 1-200 μg/ml. […] Cells were exposed to drug for 96 h continual exposure (37° C., 5% CO2). Following the 96 h incubation, 50 μl MTT solution (1 g MTT/500 ml PBS) was added per well and the plates were further incubated for 4 h (37° C., 5% CO2). After incubation the MTT and medium was removed from the wells and 100 μl DMSO added per well. Plates were agitated on an orbital mixer platform (Stuart Scientific) for 10 minutes. Absorbance was measured at 570 nm on a Biotrak II (Amersham Bioscience) plate reader. IC50 values were calculated comparing control and drug treated cells.

MDA-MB-468 = test: MTT assay (anti-proliferative activity); details: read-out: IC 50 MDA-MB-468
Method: as §1, §2

MalMe3M = test: MTT assay (anti-proliferative activity); details: 96 h continual exposure, read-out: IC 50 MalMe3M
Method: as §1, §2

SkMel28 = test: MTT assay (anti-proliferative activity); details: read-out: IC 50 SkMel28
Method: as §1, §2

[1] = system: breast cancer (MDA-MB-468 and MCF-7 cell lines) and melanoma cell lines (MalMe3, SkMe128); test: Cell cycle analysis by flow cytometry (propidium iodide); apoptosis as cells in sub G0/G1 (pre G0) peak; details: following treatment with IC70 concentration of compound
Method: Assessment of cell cycle analysis was performed using propidium iodide staining of cells and subsequent analysis on a Beckton Dickinson flow cytometer. […] The following day the medium was removed and replaced with 5 ml medium per flask containing the appropriate drug concentrations to be tested. 40 mg/ml stock drug solutions in DMSO were stores at −20° C. and on the day off drug treatment working solutions of 4 mg/ml were prepared in medium from which the final drug dilutions were prepared. Cells were maintained in an incubator (37° C., 5% CO2) for up to 96 h post treatment. After 24, 48, 72 or 96 h time points the medium from each flask was collected, stored on ice, and the remaining cells in the flasks were trypsinised by aiding 1 ml trypsin-EDTA solution to each flask. Cells were replaced into the incubator for 10 min to allow them to detach from the plastic plate. The cells in each flask were collected by adding the appropriate medium removed from each flask back to the corresponding flask and then placing medium containing both the attached and floating cells into a 15 ml tube. Cells were centrifuged at 4° C. for 5 min at 1500 rpm and the supernatant removed from each tube. The remaining cells were washed twice in ice cold PBS and then fixed in ice cold methanol overnight at −20° C. On the day of analysis of cells each tube was centrifuged at 4° C. for 5 min at 1500 rpm and the methanol removed and the cells washed twice in ice cold PBS. 20 μl propidium iodide solution (1 mg/ml) and 20 μl RNase A (10 mg/ml solution) were added to 1 ml PBS per tube and the cells were incubated for 30 min at 37° C. Cells were analysed on the flow cytometer and cell cycle changes were assessed.

[2] = Homo sapiens, MCF7, 96 h continual exposure
[3] = Homo sapiens, MDA-MB-468, 96 h continual exposure
[4] = Homo sapiens, SK-MEL-28, 96 h continual exposure

Molecule | pIC50 (MCF-7; 96 h continual exposure) | pIC50 (MDA-MB-468; 96 h continual exposure) | pIC50 (MCF-7; [2]) | pIC50 (MDA-MB-468; [3]) | pIC50 (MalMe3M) | pIC50 (SkMel28; 96 h continual exposure) | % Cells in Pre G0 phase of Cell Cycle [1] [%] | pIC50 (MalMe3M; Homo sapiens, Malme-3M) | pIC50 (SkMel28; [4])
CC1Cc2ccc(F)c(O)c2C(=O)O1 (racemic) [ALM-22, Racemic Ortho-Fluoromellein] |  |  | 3.76 | 4.21 |  |  | 16.5 | 4.01 | 4.01
CC1Cc2ccc(I)c(O)c2C(=O)O1 (racemic) [ALM-25, Racemic Ortho-Iodomellein] |  |  | 4.14 | 4.14 |  |  | 37.0 | 4.12 | 4.10
CC1Cc2ccc(C(=O)Nc3ccccc3)c(O)c2C(=O)O1 (racemic) [ALM-45, Aniline Amide] | 4.57 | 5.00 |  |  | 4.47 | 3.77 | 6.4 |  | 
CC1Cc2ccc(C(=O)n3ccnc3)c(O)c2C(=O)O1 (racemic) [ALM-46, CDI derivative] | < 3.13 | 4.13 |  |  | < 3.13 | < 3.13 |  |  | 
CC1Cc2ccc(C(=O)N3CCCC3)c(O)c2C(=O)O1 (racemic) [ALM-47, Pyrrolidine Amide] | < 3.14 | 3.31 |  |  | < 3.14 | < 3.14 |  |  | 
CNC(=O)c1ccc2c(c1O)C(=O)OC(C)C2 (racemic) [ALM-48, Methyl Amide] | 3.57 | 3.54 |  |  | 3.72 | 3.30 |  |  | 
CCCCCCN(C)C(=O)c1ccc2c(c1O)C(=O)OC(C)C2 (racemic) [ALM-50, N-Methyl-N-Hexyl Amide] | 4.04 | 4.23 |  |  | 3.96 | 3.85 |  |  | 
CCCCCCCCCCCCNC(=O)c1ccc2c(c1O)C(=O)OC(C)C2 (racemic) [ALM-51, Dodecyl Amide] | 4.89 | 4.99 |  |  | 4.59 | 4.48 | 20.6 |  | 
CCCCCCCC/C=C\CCCCCCCCNC(=O)c1ccc2c(c1O)C(=O)OC(C)C2 (racemic) [ALM-52, Oleyl Amide] | 4.67 | 4.90 |  |  | 4.28 | 3.61 | 19.8 |  | 
C[C@H]1Cc2cccc(O)c2C(=O)O1 [ALM-10, (3S)-mellein] |  |  | 3.23 | 3.50 |  |  |  | 3.44 | 3.02
C[C@@H]1Cc2cccc(O)c2C(=O)O1 [ALM-11, (3R)-mellein] |  |  | 3.02 | 3.37 |  |  |  | < 3.02 | 3.02
COc1cccc2c1C(=O)O[C@@H](C)C2 [ALM-13, (3S)-methoxy mellein] |  |  | < 2.98 | 2.98 |  |  |  | 3.09 | < 2.98
COc1cccc2c1C(=O)O[C@H](C)C2 [ALM-14, (3R)-methoxy mellein] |  |  | 2.98 | < 2.98 |  |  |  | < 2.98 | < 2.98
C[C@@H]1Cc2ccc(C(=O)N[C@@H](Cc3ccccc3)C(=O)O)c(O)c2C(=O)O1 [ALM-32, ochratoxin B] | 4.72 | 4.72 |  |  | 4.87 | 4.67 |  |  | 
O=C(N[C@@H](Cc1ccccc1)C(=O)O)c1ccc2c(c1O)C(=O)OCC2 [ALM-70, L-Phenyl Alanine Amide of Compound ALM-68] | 5.08 | 5.85 |  |  | 4.74 | 4.37 | 32.7 |  | 
Racemic Kigelin Oleyl Ester [ALM-2] | < 3.40 | < 3.40 |  |  | < 3.40 | < 3.40 |  |  | 
Racemic Mellein Oleyl Ester [ALM-17] | < 3.35 | < 3.35 |  |  | < 3.35 | < 3.35 |  |  | 

Now from value to molecule, other results behind:

pIC50 (MCF-7; 96 h continual exposure) | pIC50 (MDA-MB-468; 96 h continual exposure) | pIC50 (MCF-7; [2]) | pIC50 (MDA-MB-468; [3]) | Molecule | pIC50 (MalMe3M) | pIC50 (SkMel28; 96 h continual exposure) | % Cells in Pre G0 phase of Cell Cycle [1] [%] | pIC50 (MalMe3M; Homo sapiens, Malme-3M) | pIC50 (SkMel28; [4])
5.03 | 5.64 |  |  | CC1Cc2ccc(C(=O)NC(Cc3ccccc3)C(=O)OC(C)(C)C)c(O)c2C(=O)O1 (mixture of isomers) [ALM-53, L-Phenyl Alanine Tert-Butyl Ester Amide] | 4.93 | 4.15 | 8.9 |  | 
 |  | 3.47 | 3.57 | COC(=O)c1ccc2c(c1O)C(=O)OCC2 [ALM-68, 8-hydroxy-1-oxo-isochroman-7-carboxylic acid methyl ester] |  |  |  | 3.29 | 3.25
4.74 | 4.84 |  |  | CC(C)(C)OC(=O)[C@H](Cc1ccccc1)NC(=O)c1ccc2c(c1O)C(=O)OCC2 [ALM-69, L-Phenyl Alanine Tert-Butyl Ester Amide of Compound ALM-68] | 4.66 | 4.14 | 14.4 |  | 
 |  | 3.40 | 3.47 | COC(=O)c1ccc2c(c1O)C(=O)OC(C)(C)C2 [ALM-71, 8-hydroxy-3,3-dimethyl-1-oxo-isochroman-7-carboxylic acid methyl ester] |  |  |  | < 3.10 | < 3.10
 |  | < 3.07 | < 3.07 | CC1(C)Cc2ccc(C(=O)O)c(O)c2C(=O)O1 [ALM-72, 8-hydroxy-3,3-dimethyl-1-oxo-isochroman-7-carboxylic acid] |  |  |  | < 3.07 | < 3.07
4.83 | 5.04 |  |  | CC(C)(C)OC(=O)[C@H](Cc1ccccc1)NC(=O)c1ccc2c(c1O)C(=O)OC(C)(C)C2 [ALM-73, L-Phenyl Alanine Tert-Butyl Ester Amide of Compound ALM-71] | 5.04 | 4.86 | 25.3 |  | 
 |  | < 3.12 | < 3.12 | CC1Cc2ccc3c(c2C(=O)O1)OC(C)(C)OC3=O (stereo not drawn) [ALM-75, Acetonide Compound] |  |  |  | < 3.12 | < 3.12
